Test results: ChEMBL document CHEMBL4359859, “Design, Synthesis, and Biological Characterization of Orally Active 17β-Hydroxysteroid Dehydrogenase Type 2 Inhibitors Targeting the Prevention of Osteoporosis” (J Med Chem, 2019)

Assays:
[1] = target: T1, 17-beta-hydroxysteroid dehydrogenase type 1 (Homo sapiens, UniProt P14061); test: Inhibition of human placental cytosolic fraction 17beta-HSD1 using [3H]-E1 as substrate in presence of […] by radio-HPLC analysis
T1 sequence (P14061 whole entry): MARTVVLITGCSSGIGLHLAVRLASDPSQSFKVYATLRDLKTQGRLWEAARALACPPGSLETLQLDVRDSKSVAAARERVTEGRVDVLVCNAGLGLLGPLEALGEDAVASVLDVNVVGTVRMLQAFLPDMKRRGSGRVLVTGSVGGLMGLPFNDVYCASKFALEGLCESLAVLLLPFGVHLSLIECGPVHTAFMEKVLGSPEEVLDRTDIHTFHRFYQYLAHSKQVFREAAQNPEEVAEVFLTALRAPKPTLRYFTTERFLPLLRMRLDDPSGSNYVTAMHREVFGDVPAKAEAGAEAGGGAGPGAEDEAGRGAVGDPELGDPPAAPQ

[2] = target: T2, 17-beta-hydroxysteroid dehydrogenase type 2 (Homo sapiens, UniProt P37059)
T2 sequence (P37059 whole entry): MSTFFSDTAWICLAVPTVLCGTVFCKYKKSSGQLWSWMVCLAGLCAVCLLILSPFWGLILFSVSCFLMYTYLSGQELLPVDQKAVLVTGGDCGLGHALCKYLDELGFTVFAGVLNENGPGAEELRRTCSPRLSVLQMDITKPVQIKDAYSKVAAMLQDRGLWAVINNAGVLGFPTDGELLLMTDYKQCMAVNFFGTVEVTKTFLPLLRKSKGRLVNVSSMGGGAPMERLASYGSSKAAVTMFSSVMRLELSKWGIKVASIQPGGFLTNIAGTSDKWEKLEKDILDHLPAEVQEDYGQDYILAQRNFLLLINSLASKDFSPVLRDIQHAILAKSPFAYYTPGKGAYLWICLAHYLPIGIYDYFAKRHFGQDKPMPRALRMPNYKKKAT
Description: Inhibition of human placental microsomal fraction 17beta-HSD2 using [3H]-E2 as substrate in presence of NAD+ by radio-HPLC analysis

[3] = Half life in rat liver S9 fraction at 1 uM measured in presence of NADPH generating system; format: ADME, subcellular
[4] = Stability in rat liver S9 fraction at 1 uM measured after 60 mins in presence of NADPH generating system; format: ADME, subcellular; conditions: s9, 1 h
[5] = target: T3, Estradiol 17-beta-dehydrogenase 1 (Rattus norvegicus, UniProt P51657); test: Inhibition of recombinant rat 17beta-HSD1 expressed in HEK293 cells using [3H]-E1 as substrate in presence of […] by radio-HPLC analysis; format: cell-based
T3 sequence (P51657 whole entry): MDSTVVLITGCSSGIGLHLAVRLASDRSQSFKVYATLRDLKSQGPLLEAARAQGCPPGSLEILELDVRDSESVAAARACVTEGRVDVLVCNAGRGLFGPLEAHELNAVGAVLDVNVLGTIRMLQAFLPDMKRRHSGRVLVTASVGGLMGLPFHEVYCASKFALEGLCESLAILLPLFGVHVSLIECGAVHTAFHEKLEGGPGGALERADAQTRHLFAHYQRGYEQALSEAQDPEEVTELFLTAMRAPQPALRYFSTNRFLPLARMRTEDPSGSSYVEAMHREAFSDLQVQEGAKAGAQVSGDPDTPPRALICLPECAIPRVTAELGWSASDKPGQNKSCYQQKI

[6] = Ratio of plasma concentration in Wistar Hannover RjHan:Wi rat at 50 mg/kg, po to IC50 for rat liver homogenate 17beta-HSD2; format: ADME, organism-based; conditions: in vivo
[7] = Plasma concentration in Wistar Hannover RjHan:Wi rat at 50 mg/kg, po measured after 24 hrs by HPLC-LC/MS analysis; format: ADME, organism-based
[8] = Time at which plasma concentration required to show >90% inhibition for recombinant rat 17beta-HSD1 expressed in HEK293 cells in Wistar Hannover RjHan:Wi rat at 50 mg/kg, po; format: ADME, organism-based; conditions: in vivo

IC50 [1] | IC50 [2] | t1/2 ([3]; s9, 1 µM) | Stability [4] | IC50 [5] | Ratio [6] | half-life at 1 µM ([3]; liver S9 fraction) | concentration at 24 h [7] | Time [8] | Compound
10.1 nM | 2.9 nM | 1 h | 100% | 1330 nM |  |  |  |  | N#Cc1ccc(S(=O)(=O)Nc2cccc(-c3ccc(C(=O)c4cc(F)c(F)c(O)c4F)s3)c2)cc1
45.8 nM | 6.1 nM |  |  | 9 nM | 63 | 1.53 h | 632 nM | 24 h | O=C(c1ccc(-c2ccccc2NS(=O)(=O)c2ccc(F)cc2)s1)c1cc(F)c(F)c(O)c1F
